# Laboratory results from patent US8968703B2, “13C-MR detection using hyperpolarised 13C-fructose” (GE Healthcare Limited, priority 2009, dated 2015).
# What was measured:
# [1] = 11.7T NMR studies of hyperpolarized [2-13C]-fructose (T1, percent polarization); type: physicochemical; settings: for T1 sec (11.7T): C2 fructose carbon, mono-exponential fit of hyperpolarized signal decay; for % pol (corrected): percent polarization corrected for transfer time using T1 decay
# Method: A 4.0M solution of 2-[^13C]-fructose (Isotec, Miamisburg, Ohio) in water containing 15 mM OX063 trityl radical (Oxford Instruments) was hyperpolarized on a Hypersense instrument (Oxford Instruments) as described by Ardenkjaer-Larsen et al (2003) Increase in signal-to-noise ratio of >10,000 times in liquid-state NMR. Proc. Natl. Acad. Sci. U.S.A. 100, 10158-10163. The frozen sample was dissolved in 1× phosphate buffered saline (PBS), with a resultant pH of 7.6, and transferred immediately to a 10 mm NMR tube.
# NMR studies were performed on an 11.7T Varian INOVA spectrometer (125 MHz ^13C, Varian Instruments) using a 10 mm ^15N/[…]/^13C triple-tuned direct detect probe. Initially, a thermal spectrum was acquired for a natural abundance fructose sample in 1×PBS buffer at 37° C. (nt=9000, sw=30000, np=30000, TR=3.5 s, acq time=0.5 s) using an Ernst angle pulse (45 degrees). […] The C2 carbon resonances correspond to the isomeric distribution of the two ring forms (pyranose and furanose forms) of the fructose molecule.
# For the acquisition of hyperpolarized ^13C spectra […] pulse hyperpolarized ^13C NMR spectra (1 average, spectral window=30000 Hz, number of points=30000, TR=3.5 s, acq time=0.5 s, total acq time=2 min 55 s) were acquired using a 5° pulse and proton decoupled using a waltz-16 decoupling scheme. Hyperpolarized studies were followed by acquisition of thermal data using nearly identical parameters, using a 90° tip angle and a repeat time of roughly four T1's (TR=76 s, nt=64). T1's were determined by performing a mono-exponential fit to the signal decay curve of the hyperpolarized compounds. Signal enhancement percent polarizations were calculated by comparing the hyperpolarized and thermal data sets and accounting for differences in tip angle and transients obtained. Solid state polarizations were calculated by correcting the enhancement for the transfer time from the polarizer using the T1 decay.
# [2] = 3T T1 studies of hyperpolarized [2-13C]-fructose in solution; type: physicochemical; settings: for T1 sec (3T): C2 fructose carbon, solution spectra, monoexponential fit
# Method: T1 studies were performed using a 3T GE Signa™ scanner (GE Healthcare. Waukesha, Wis.) equipped with the MNS (multinuclear spectroscopy) hardware package. Solution spectra were acquired using a 5° non localised pulse, TR=3 s and fit to a monoexponential. The RF coil used in these experiments was a dual-tuned ^1H-^13C coil with a quadrature ^13C channel and linear ^1H channel construction based on an earlier design and also used in ^13C-pyruvate mouse imaging studies. For animal studies, T2-weighted fast spin echo images were acquired prior to MRSI studies to denote anatomy and place voxels on the region of interest. In vivo MRSI studies were carried out using a compressed sensing double spin 3D MRSI acquisition scheme as previously published by Hu S et al. (2008) Compressed sensing for resolution enhancement of hyperpolarized 13C flyback 3D-MRSI. J Magn Reson 192, 258-264, with a TE=140 ms. TR=215 ms, FOV=8 cm×8 cm, and 16×8 resolution. 500 μl of 80 mM [2-^13C]-fructose was injected similar to described by Albers M J et al. (2008) Hyperpolarized 13C lactate, pyruvate and alanine: noninvasice biomarkers for prostate cancer detection and grading. Cancer Res. 68, 8607-8615, for [1-^13C] pyruvate in a transgenic model of prostate cancer (TRAMP). These injections were compared to the standard [1-^13C]-pyruvate injection for the same voxel in a tumor region of interest.
# hexokinase = assay: NMR study of enzymatic conversion of hyperpolarized fructose to fructose-6-phosphate; type: biochemical; settings: 400 U hexokinase
# Method: For NMR studies of the enzymatic conversion of Fructose to fructose-6-phosphate, hyperpolarized [2-^13C]-fructose was reacted with 400 U of hexokinase (Sigma Aldrich) in the presence of 15 mM ATP, 50 mM TRIS and 13 mM MgCl2. The labelling and mechanism for transport and metabolism is shown below (FIG. 1), though in this enzymatic study the transport element has been removed and the enzyme activity was independently measured. Peaks corresponding to fructose-6-phosphate were identified using a natural abundance carbon spectrum, using a similar set of experimental parameters.
# [3] = 11.7T NMR studies of hyperpolarized [2-13C]-fructose (T1, percent polarization); type: physicochemical; settings: pH ranges 5.9-7.8
Compound,T1 sec (11.7T) [1] [s],% pol (corrected) [1] [%],T1 sec (3T) [2] [s],"Time to conversion to fructose-6-phosphate after addition to hexokinase (hexokinase; 15 mM ATP, 50 mM TRIS, 13 mM MgCl2) [s]",Conversion of fructose to fructose-6-phosphate in thermal spectrum (hexokinase; thermal spectrum acquired over 85 minutes post DNP),Relaxation times (T1) ([1]; at 11.7 T) [s],"Percent polarization, average over isomers ([1]; averages for the isomers of fructose) [%]",Isomeric ratio of fructose pyranose to furanose in solution ([1]; in solution),Relaxation times (T1) ([2]; at 3T) [s],T1 dependence on pH [3]
OC[C@H]1O[C@@](O)(CO)[C@@H](O)[C@@H]1O [A-fructofuranose],15.5 ± 0.5,11.8 ± 2.0,13.4 ± 0.4,,,,,,,
"O=[13C](CO)[C@@H](O)[C@H](O)[C@H](O)CO [fructose, [2-^13C]-fructose]",,,,≤ 5,fully converted,15 to 16,~12,approximately 77/23,13 to 14,no T1 dependence on pH
OC[C@H]1O[C@](O)(CO)[C@@H](O)[C@@H]1O [β-fructofuranose],15.8 ± 0.5,11.6 ± 2.5,13.4 ± 2.5,,,,,,,
OC[C@@]1(O)OC[C@@H](O)[C@@H](O)[C@@H]1O [β-fructopyranose],16.3 ± 0.5,12.0 ± 2.2,14.5 ± 0.3,,,,,,,
